TGI and GI50 data for 25 molecules are collected here from PubChem BioAssay (NCI).

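Following 48 hours of exposure in 96-well plates, responses at five concentrations were used to interpolate endpoints linearly. GI50 marks 50% less growth. TGI is the concentration that stops growth completely.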 Bounds are passed on as bounds.

Some test systems named below: KM12 colon; SK-MEL-5 melanoma; SN12C renal; A498 renal; HCC-2998 colon; NCI-H23 lung; RXF 393 renal; SNB-75 CNS.
Holding throughout (assay): NCI-60 cell line screen, 48 h

With `CCOC(=O)C[C@@]12CCCNC1(C)CCc1ccccc12` (stereo not given in full), the TGI with KM12 colon, with SK-MEL-5 melanoma and in the assay on SN12C renal was above 100 µM in each case.
Consider `O=C1C(c2ccccc2)=C(c2ccccc2)[C@H](c2ccccc2)[C@]1(Cc1nnn(-c2ccc([N+](=O)[O-])cc2)c1N1CCOCC1)c1ccccc1`, for which the TGI in the assay with A498 renal, with HCC-2998 colon, in the assay on NCI-H23 lung, in the assay with RXF 393 renal, with SK-MEL-5 melanoma and in the assay with SN12C renal was above 37.5 µM in each case. Besides, the TGI in the assay with SNB-75 CNS is above 37.5 µM.
Consider `Cc1nnc(N=Nc2c(O)[nH]c3ccccc23)n1N`, for which the TGI with A498 renal, in the assay on HCC-2998 colon, in the assay on KM12 colon, with NCI-H23 lung, in the assay with RXF 393 renal and in the assay with SK-MEL-5 melanoma was above 100 µM throughout. For the same molecule, the TGI with SN12C renal and in the assay with SNB-75 CNS was above 100 µM throughout.
Turning to `COc1ccc(C2NCCc3c2[nH]c2ccccc32)cc1` (stereo not given), the TGI was 65.1 µM in the assay with HCC-2998 colon; above 100 µM in the assay on KM12 colon; above 100 µM with NCI-H23 lung; above 100 µM with RXF 393 renal; 66.1 µM in the assay on SK-MEL-5 melanoma; above 100 µM with SN12C renal. Moreover, the TGI with SNB-75 CNS is above 100 µM.
As for `COC(=O)C1(F)C(=O)NC(=O)NC1OC` (stereo not given), the TGI with A498 renal, in the assay on KM12 colon, in the assay on NCI-H23 lung, with SK-MEL-5 melanoma, with SN12C renal and in the assay with SNB-75 CNS was above 100 µM in each case.
As to `NS(=O)(=O)c1ccc(NC(=O)c2cccn3c(=O)c4ccccc4nc23)cc1`, the TGI in the assay on A498 renal, in the assay on KM12 colon, in the assay with NCI-H23 lung, with RXF 393 renal, in the assay on SK-MEL-5 melanoma and in the assay on SN12C renal was above 100 µM throughout. In addition, the TGI with SNB-75 CNS is above 100 µM.
For `CC(=O)OCCC(O[Si](c1ccccc1)(c1ccccc1)C(C)(C)C)C(C)(C)O` (stereo not given), the TGI in the assay on A498 renal is above 100 µM; in the assay with KM12 colon, 55 µM; in the assay with NCI-H23 lung it was 68.7 µM; in the assay on RXF 393 renal, 36.6 µM; in the assay with SK-MEL-5 melanoma, above 100 µM; with SN12C renal, 34.2 µM. The same molecule yielded a TGI in the assay with SNB-75 CNS above 100 µM.
For `C/C(=N/NC(=O)CC(=O)N(C(=O)c1ccccc1Cl)c1ccc(C)cc1)c1cc2ccccc2oc1=O`, the TGI with A498 renal, in the assay with HCC-2998 colon, in the assay on KM12 colon, in the assay with NCI-H23 lung, in the assay with RXF 393 renal and in the assay with SK-MEL-5 melanoma was above 100 µM in each case. In addition, the TGI in the assay with SN12C renal and with SNB-75 CNS was above 100 µM in each case.
Regarding `CC1(C)OC(COCCOCCCCCO)C(COCCOCCCCCO)O1` (stereo not given), the TGI in the assay with A498 renal, in the assay with HCC-2998 colon, with KM12 colon, in the assay with NCI-H23 lung, with RXF 393 renal and in the assay with SK-MEL-5 melanoma was above 100 µM throughout. Moreover, the TGI with SN12C renal and with SNB-75 CNS was above 100 µM in each case.
In the case of `Cc1ccccc1NC(=O)C(=O)CC(=O)c1ccc([N+](=O)[O-])cc1`, the TGI in the assay with HCC-2998 colon, in the assay with KM12 colon, in the assay on NCI-H23 lung, with RXF 393 renal, with SN12C renal and in the assay on SNB-75 CNS was above 100 µM throughout.
On to `C/C(=N/O)c1ccc2c(c1)C(=NO)c1cc(/C(C)=N/O)ccc1-2`, for which the TGI in the assay with HCC-2998 colon is 33.9 µM; in the assay with KM12 colon, 32.9 µM; in the assay with NCI-H23 lung it was 35.3 µM; in the assay with RXF 393 renal, 48.8 µM; in the assay with SK-MEL-5 melanoma it was 28.5 µM; with SN12C renal, 33.6 µM. In the assay on SNB-75 CNS, this molecule returned a TGI of 36.3 µM.
Regarding `COc1cc2cccc(N=Cc3c(Br)ccc(OC)c3OC(C)C)c2cc1OC`, the TGI in the assay on A498 renal, in the assay with HCC-2998 colon, in the assay with KM12 colon, in the assay with NCI-H23 lung, with SK-MEL-5 melanoma and in the assay with SN12C renal was above 100 µM in each case. This molecule also returned a TGI in the assay with SNB-75 CNS of 89.3 µM.
For `CC1(C)CC(=O)c2c(oc3cc(O)c(O)cc23)C1`, the TGI was above 100 µM with A498 renal; above 100 µM with HCC-2998 colon; 77.4 µM in the assay with KM12 colon; above 100 µM in the assay on RXF 393 renal; 32.5 µM in the assay on SK-MEL-5 melanoma; above 100 µM with SN12C renal. The molecule also gave a TGI in the assay with SNB-75 CNS above 100 µM.
As to `COC(=O)c1cc2c3c(ccc2[nH]1)N(C(=O)c1cc2c4c(ccc2[nH]1)N(C(=O)c1cc2c5c(ccc2[nH]1)N(C(N)=O)CC5)CC4)CC3`, the TGI in the assay with A498 renal is 4.4 µM; in the assay on HCC-2998 colon it was above 100 µM; with KM12 colon, above 100 µM; with NCI-H23 lung it was above 100 µM; with RXF 393 renal, 12.5 µM; in the assay with SK-MEL-5 melanoma, 8.68 µM. The molecule further returned a TGI in the assay with SN12C renal of 49.4 µM.
As for `COc1nc2c(c(O)c(C)c(=O)n2OC2OC(COC(C)=O)C(OC(C)=O)C(OC(C)=O)C2OC(C)=O)c(=O)n1C` (stereo not given), the TGI in the assay on HCC-2998 colon, in the assay with KM12 colon, in the assay on NCI-H23 lung, in the assay with RXF 393 renal, in the assay with SK-MEL-5 melanoma and in the assay on SN12C renal was above 100 µM throughout. In the assay on SNB-75 CNS, this molecule registered a TGI above 100 µM.
Turning to `NC(=O)c1c[se]c(C2OC(COP(=O)(O)CP(=O)(O)OCC3OC(n4cnc5c(N)ncnc54)C(O)C3O)C(O)C2O)n1` (stereo not given), the TGI in the assay on A498 renal, with KM12 colon, in the assay with NCI-H23 lung, in the assay with RXF 393 renal, in the assay with SK-MEL-5 melanoma and with SN12C renal was above 100 µM in each case. The same molecule had a TGI with SNB-75 CNS above 100 µM.
Turning to `CCCCCCCCCC(=O)Oc1cccc2onc(C)c12`, the TGI in the assay with HCC-2998 colon, in the assay with KM12 colon, in the assay on NCI-H23 lung, in the assay on RXF 393 renal, in the assay on SK-MEL-5 melanoma and with SN12C renal was above 100 µM throughout. Also, the TGI in the assay with SNB-75 CNS was above 100 µM.
Turning to `CC[P+]1(CC)CCCC1`, the TGI in the assay with HCC-2998 colon, in the assay on KM12 colon, with NCI-H23 lung, with RXF 393 renal, in the assay with SK-MEL-5 melanoma and in the assay on SN12C renal was above 100 µM each time. In the assay on SNB-75 CNS, this molecule came in with a TGI above 100 µM.
With `C=C(CNCCc1ccc(O)cc1)[C@@H]1CC[C@]2(CO)CC[C@]3(C)[C@H](CC[C@@H]4[C@@]5(C)CCC(N)C(C)(C)[C@@H]5CC[C@]43C)[C@@H]12` (stereo not given in full), the GI50 in the assay with A498 renal is 1.44 µM; in the assay on HCC-2998 colon, 1.66 µM; with KM12 colon it was 1.48 µM; in the assay with RXF 393 renal, 1.08 µM; in the assay on SK-MEL-5 melanoma, 1.69 µM; with SN12C renal, 1.56 µM. Also, in the assay on SNB-75 CNS, the GI50 is 1.24 µM. The TGI with A498 renal stood at 2.79 µM; with HCC-2998 colon it was 3.3 µM; with KM12 colon, 2.96 µM; in the assay with RXF 393 renal, 2.36 µM; in the assay on SK-MEL-5 melanoma it was 3.09 µM; in the assay on SN12C renal, 3.02 µM. In addition, in the assay on SNB-75 CNS, the TGI was 2.49 µM.
For the molecule `c1cnc2[nH]cc(-c3csc(-c4cn(CCCN5CCCCC5)c5ccccc45)n3)c2c1`, the GI50 in the assay on A498 renal was 1.83 µM; in the assay with KM12 colon, 1.61 µM; with SN12C renal, 1.68 µM; in the assay on SNB-75 CNS, 1.21 µM. For the same molecule, the TGI with A498 renal turned out to be 3.38 µM; in the assay on KM12 colon, 3.13 µM; in the assay on SN12C renal, 3.22 µM; in the assay on SNB-75 CNS, 2.84 µM.
With `CC(=O)[CH-]C(=O)c1ccccc1.CC(=O)[CH-]C(=O)c1ccccc1.[CH2-]CCC.[CH2-]CCC.[Sn+4]`, the GI50 in the assay with A498 renal is 1.66 µM; with KM12 colon, 1.41 µM; with NCI-H23 lung it was 0.476 µM; with RXF 393 renal it was 0.258 µM; in the assay on SK-MEL-5 melanoma, 0.625 µM; with SN12C renal, 1.14 µM. In the assay on SNB-75 CNS, the GI50 is 0.352 µM. The TGI in the assay on A498 renal was found to be 3.74 µM; in the assay with KM12 colon, 2.76 µM; in the assay with NCI-H23 lung, 1.77 µM; in the assay with RXF 393 renal it was 0.784 µM; in the assay with SK-MEL-5 melanoma, 1.97 µM; with SN12C renal, 2.68 µM. Besides, the TGI in the assay on SNB-75 CNS came out at 1.18 µM.
Turning to `CC(C)(C)c1cc(CCC(=O)Nc2ccc(Cl)cc2Cl)nc(N)n1`, the TGI in the assay with HCC-2998 colon, with KM12 colon, in the assay on NCI-H23 lung, in the assay with RXF 393 renal, in the assay on SK-MEL-5 melanoma and in the assay with SN12C renal was above 100 µM each time.
As to `C[N+](C)=c1nc(N2CCOCC2)ss1`, the TGI with A498 renal, with HCC-2998 colon, in the assay on KM12 colon, in the assay on NCI-H23 lung, in the assay on RXF 393 renal and in the assay on SK-MEL-5 melanoma was above 100 µM throughout. Moreover, in the assay with SN12C renal, the TGI is above 100 µM.
Regarding `COc1ccc(CC2=NCCc3cc(OC)c(OC)cc32)cc1Br`, the TGI in the assay on A498 renal is 95.1 µM; in the assay on HCC-2998 colon, 35.6 µM; in the assay with KM12 colon it was 84.4 µM; in the assay on NCI-H23 lung, above 100 µM; with RXF 393 renal it was 90.6 µM; with SK-MEL-5 melanoma, 25.3 µM. In addition, the TGI in the assay with SN12C renal is above 100 µM.
As to `CCOC1=C2NC(Cc3ccc(F)cc3)=NC2C(=O)c2ccccc21` (stereo not given), the TGI was 87.9 µM with A498 renal; above 100 µM in the assay on HCC-2998 colon; above 100 µM with KM12 colon; 53.4 µM in the assay on NCI-H23 lung; 73.5 µM with RXF 393 renal; 55.1 µM in the assay with SNB-75 CNS.
